The values that follow come from patent publication US20150080580A1, “THIOUREA DERIVATIVES AS a-CHYMOTRYPSIN INHIBITORS” (priority 2013, published 2015).

In series [1] the target is T1, α-Chymotrypsin (Bos taurus, UniProt P00766).
T1 construct: purchased Sigma-Aldrich (USA) C4129; host or cells: bovine pancreas
Description: α-Chymotrypsin inhibition kinetic study (Lineweaver-Burk, Dixon, Hanes-Woolf plots). To be noted: for Type of inhibition: from Lineweaver-Burk, Dixon and Hanes-Woolf plots; for Ki: substrate SPpNA 0.4-3.2 mM, n = 3, read-out: Ki ± SEM. The format is biochemical, bovine. The source says: (§1) α-Chymotrypsin (bovine pancreas, C4129) and N-succinyl-L-phenylalanine-p-nitroaniline (S2628) were purchased from Sigma-Aldrich (USA). Chymostatin (152845) from MP Biomedicals, LLC, USA, Tris(hydroxymethyl)aminomethane from Scharlau Chemie Barcelona, Spain and all other reagents were obtained from E. Merck and were of analytical grade. All other solvents and reagents were of analytical grade and used directly without purification.
The change in concentration of the substrate/product (rate of reaction) was measured as optical density per minute (OD/min). This OD/min was obtained by incorporating different concentrations of compounds over substrate (SPpNA) concentrations between 0.4 mM and 3.2 mM in micro-plate reader. Reciprocal of OD/min against the reciprocal of the substrate concentration, defined as Lineweaver-Burk plot (and its secondary plot; slope vs compound concentration); the Dixon plot (and its secondary plot; slope vs reciprocal of compound concentration) and then Hanes-Woolf plot were plotted (Lineweaver et al., 1934; Dixon, 1953; Segel, 1993) Graphs were plotted using GraFit 4 (Erithacus Software Limited, Surrey, UK) and GraphPad Prism 5 (GraphPad Software, California, USA). The types of inhibition were determined by the graphical views of Dixon plots, Lineweaver-Burk plots and their secondary plots as well as Hanes-Woolf plot. The Ki values, obtained directly from the software, also were cross-checked and tallied in these graphs. Final concentration of DMSO was maintained 5.5%.

The test system of a further series is 3T3 cell line. The series can be described thus: Cell proliferation inhibition (cytotoxicity) MTT assay for 3T3 cell line. The format is cell-based, Mouse. Here is the method: (§2) It was evaluated by using the MTT (3-[4,5-dimethylthiazole-2-yl]-2,5-diphenyl-tetrazolium bromide) assay (Mosmann, 1983). The 3T3 cell-lines (Mouse Fibroblasts) were cultured in Dulbecco's Modified Eagle's Medium, which was later supplemented with 5% of bovine serum, 100 IU/mL of penicillin, and 100 μg/mL of streptomycin, in 5% CO2 incubator at 37° C. Exponentially growing cell, 1×10^4 cells/well incorporated into each well of 96-well plates. Then, fresh the medium containing different concentrations of compounds were loaded in each well after 24 hours. Again, after 72 hrs, fresh the medium containing 0.5 mg/mL MTT were loaded in each well, and incubated further for 4 hrs. Subsequently, the media containing MTT was replaced by 100 μL of DMSO for 15 min, and then the absorbance was taken at 570 nm.

Experiment in series [2]: as above
The format is cell-based, Mouse. To be noted: 3T3 mouse fibroblast cells; 3T3 mouse fibroblasts, MTT, 72 hrs, n = 3; read-out: 3T3 cell-line GI50 ± SEM. As for the experimental part:
as §2

In series [3] the target is T1, α-Chymotrypsin. The series can be described thus: α-Chymotrypsin inhibition assay (SPpNA substrate, absorbance at 410 nm). To be noted: α-chymotrypsin, substrate SPpNA 0.4 mM, pH 7.6, 30° C., n = 3. Type of series: biochemical, bovine. Here is the method:
as §1
This was performed in 50 mM Tris-HCl buffer pH 7.6 with 10 mM CaCl2. α-Chymotrypsin (12 units/mL prepared in 50 mM Tris-HCl buffer) with the different concentration of test compounds prepared in DMSO. It was then incubated at 30° C. for 25 min. The reaction was started by the addition of the substrate, N-succinyl-L-phenylalanine-p-nitroanilide (final concentration of 0.4 mM, prepared in the buffer as mentioned above). The change in absorbance due to released p-nitroaniline was continuously monitored at 410 nm (Choudhary et al., 2011). All the experiments were in a final volume of 200 μL in triplicate, and data was taken using a micro-plate reader (SpectraMax M2, Molecular Devices, Calif., USA).
The results were processed by using SoftMax Pro 4.8 then analyzed by MS Excel software. The % of inhibition based upon initial velocity and calculated as: […]
IC50 (Inhibition of enzymatic hydrolysis of the substrate SPpNA by 50%) value was calculated using EZ-Fit software (Perellela Scientific, Inc., Amherst, Mars, USA).

In the case of `Cc1ccc(NC(=S)Nc2cccc(Cl)c2)cc1` [Compound 9, 1-(3-Chlorophenyl)-3-p-tolylthiourea], at α-Chymotrypsin [1], the Type of inhibition result was “Non- Competitive” and the inhibitory constant (Ki) amounted to 39.6 ± 1 µM. Also, in the series on 3T3 cell line, the “growth inhibition for 3T3 cell lines (in words)” value (shortened to “growth inhibition”) is reported as “showed growth inhibition”. Further, the GI50 at 72 h in series [2] amounted to 2.3 ± 0.4 µM. Moreover, the IC50 against α-Chymotrypsin [3] turned out to be 46.2 ± 0.5 µM.
Consider `COc1ccccc1NC(=S)Nc1cccc(Cl)c1` [Compound 5, 1-(3-Chlorophenyl)-3-(2-methoxyphenyl) thiourea], for which, at α-Chymotrypsin [1], the Type of inhibition entry is “Non- Competitive” and the inhibitory constant (Ki) is 25.3 ± 4.6 µM. The “growth inhibition” value with 3T3 cell line is reported as “showed growth inhibition”. For the same molecule, the GI50 at 72 h in series [2] came out at 10.7 ± 1.2 µM. In addition, the midpoint of inhibition at α-Chymotrypsin [3], the IC50, lay at 26.3 ± 4.9 µM.
`S=C(Nc1cccc(Cl)c1)Nc1ccc(Cl)cc1Cl` [Compound 8, 1-(3-Chlorophenyl)-3-(2,4-dichlorophenyl) thiourea]: on α-Chymotrypsin [1], the Type of inhibition entry was “Mixed” and the inhibitory constant (Ki) stood at 31.8 ± 3.4 µM. Moreover, the “growth inhibition” value in the series on 3T3 cell line is “showed growth inhibition”. Also, the 50% growth inhibitory concentration (GI50) at 72 h in series [2] was found to be 21.4 ± 0.1 µM. At α-Chymotrypsin [3], this molecule came in with an IC50 of 42.4 ± 0.3 µM.
The like results for `Cc1ccc(Cl)cc1NC(=S)Nc1cccc(Cl)c1` [Compound 7, 1-(5-Chloro-2-methylphenyl)-3-(3-chlorophenyl) thiourea] were, in that order, “Competitive”, 25.8 ± 0.9 µM, “showed growth inhibition”, 24.6 ± 0.2 µM and 40.4 ± 1.2 µM.
Take `Cc1ccccc1NC(=S)Nc1cccc(Cl)c1` [Compound 17, 1-(3-Chlorophenyl)-3-o-tolylthiourea]: at α-Chymotrypsin [1], the Type of inhibition result is “Competitive” and the inhibition constant (Ki) was found to be 329 ± 11.6 µM. Also, the concentration for 50% growth inhibition (GI50) at 72 h in series [2] is more than 30 µM. 387 ± 13.1 µM corresponded to half-maximal inhibition on α-Chymotrypsin [3] (IC50).

As usually defined, the Ki is a measure of affinity in units of concentration, obtained from inhibition or displacement. By GI50 is commonly meant the concentration that inhibits growth by half. In general, IC50 refers to the midpoint of a concentration-inhibition curve. Read a high IC50 as a need for much substance.
